In patent US10597388B2, “Pyridazinone herbicides” (FMC CORPORATION, priority 2014, dated 2020):

Columns and labels:
Assay in all cases: Test C greenhouse herbicide test, pre- and postemergence
Format in all cases: in vivo
[1] = test system: blackgrass (Alopecurus myosuroides)
Method in brief: (§1)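 Percent-control ratings (0 none, 100 complete) came from visual comparison with controls held alongside in the greenhouse for 13–15 d. Treatments covered soil application at sowing and foliar application to young plants 2–18 cm tall.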

corn (Zea mays) = test system: corn (Zea mays)
Method in brief: as §1

[2] = test system: crabgrass, large (large crabgrass, Digitaria sanguinalis)
Method in brief: as §1

[3] = test system: foxtail, giant (giant foxtail, Setaria faberii)
Method in brief: as §1

[4] = test system: galium (catchweed bedstraw, Galium aparine)
Method in brief: as §1

[5] = test system: johnsongrass (Sorghum halepense)
Method in brief: as §1

[6] = test system: lambsquarters (Chenopodium album)
Method in brief: as §1

[7] = test system: morningglory (Ipomoea coccinea)
Method in brief: as §1

[8] = test system: nutsedge, yellow (yellow nutsedge, Cyperus esculentus)
Method in brief: as §1

[9] = test system: oilseed rape (Brassica napus)
Method in brief: as §1

[10] = test system: pigweed (Amaranthus retroflexus)
Method in brief: as §1

[11] = test system: ryegrass, Italian (Italian ryegrass, Lolium multiflorum)
Method in brief: as §1

soybean (Glycine max) = test system: soybean (Glycine max)
Method in brief: as §1

[12] = test system: velvetleaf (Abutilon theophrasti)
Method in brief: as §1

[13] = test system: waterhemp (common waterhemp, Amaranthus rudis)
Method in brief: as §1

[14] = test system: wheat (winter wheat, Triticum aestivum)
Method in brief: as §1

[15] = Postemergence, 31 g ai/ha, 0 to 100 scale (0 no effect, 100 complete control)
[16] = Postemergence, 125 g ai/ha, scale 0 to 100, 0 is no effect, 100 is complete control
[17] = Postemergence, 250 g ai/ha, scale 0 to 100, 0 no effect, 100 complete control, 13 to 15 d
[18] = Preemergence, 31 g ai/ha, scale 0 to 100, 0 is no effect, 100 is complete control
[19] = Preemergence, 62 g ai/ha, scale 0 to 100, 0 is no effect, 100 is complete control
[20] = Preemergence, 125 g ai/ha, scale 0 to 100, 0 is no effect, 100 is complete control
[21] = Preemergence, 250 g ai/ha, scale 0 to 100 (0 no effect, 100 complete control)
[22] = postemergence, 62 g ai/ha, scale 0 to 100, 0 no effect, 100 complete control

COc1nn(C)c(=O)c(-c2c(C)ccc3ccccc23)c1O [Compound 54]
98: Plant response rating, Galium [4, 16] | Plant response rating, Galium [4, 17] | Galium plant response rating [4, 22] | Plant response rating, Morningglory [7, 16] | Morningglory plant response rating [7, 21] | Morningglory plant response rating [7, 22] | Plant response rating, Pigweed [10, 16] | Plant response rating, Velvetleaf [12, 16] | Plant response rating, Waterhemp [13, 18]
55: Plant response rating, Blackgrass [1, 19] | Plant response rating, Blackgrass [1, 20] | Plant response rating, Crabgrass, Large [2, 17] | Foxtail, Giant plant response rating [3, 22] | Plant response rating, Nutsedge, Yellow [8, 16] | Plant response rating, Ryegrass, Italian [11, 18]
75: Plant response rating, Crabgrass, Large [2, 20] | Plant response rating, Foxtail, Giant [3, 16] | Plant response rating, Foxtail, Giant [3, 20]
85: Plant response rating, Lambsquarters [6, 19] | Pigweed plant response rating [10, 15] | Plant response rating, Ryegrass, Italian [11, 16] | Plant response rating, Velvetleaf [12, 19] | Waterhemp plant response rating [13, 15]
70: Plant response rating, Foxtail, Giant [3, 18] | Plant response rating, Nutsedge, Yellow [8, 17] | Nutsedge, Yellow plant response rating [8, 21] | Oilseed Rape plant response rating [9, 15] | Plant response rating, Oilseed Rape [9, 17] | Plant response rating, Oilseed Rape [9, 18]
95: Galium plant response rating [4, 15] | Plant response rating, Galium [4, 18] | Plant response rating, Galium [4, 19] | Lambsquarters plant response rating [6, 15] | Lambsquarters plant response rating [6, 22] | Morningglory plant response rating [7, 15] | Plant response rating, Morningglory [7, 20] | Pigweed plant response rating [10, 22] | Velvetleaf plant response rating [12, 21] | Plant response rating, Waterhemp [13, 16] | Plant response rating, Waterhemp [13, 17]
90: Plant response rating, Foxtail, Giant [3, 17] | Foxtail, Giant plant response rating [3, 21] | Plant response rating, Morningglory [7, 19] | Plant response rating, Oilseed Rape [9, 19] | Plant response rating, Oilseed Rape [9, 20] | Ryegrass, Italian plant response rating [11, 21] | Plant response rating, Soybean (soybean (Glycine max); [19]) | Plant response rating, Velvetleaf [12, 20] | Velvetleaf plant response rating [12, 22] | Waterhemp plant response rating [13, 22]
50: Plant response rating, Blackgrass [1, 18] | Ryegrass, Italian plant response rating [11, 15] | Plant response rating, Ryegrass, Italian [11, 19] | Wheat plant response rating [14, 22]
20: Crabgrass, Large plant response rating [2, 15] | Foxtail, Giant plant response rating [3, 15] | Soybean plant response rating (soybean (Glycine max); [21])
15: Blackgrass plant response rating [1, 15]
10: Plant response rating, Corn (corn (Zea mays); [17]) | Plant response rating, Corn (corn (Zea mays); [19]) | Plant response rating, Corn (corn (Zea mays); [20]) | Plant response rating, Johnsongrass [5, 16] | Plant response rating, Johnsongrass [5, 17] | Johnsongrass plant response rating [5, 21] | Nutsedge, Yellow plant response rating [8, 15] | Plant response rating, Soybean (soybean (Glycine max); [16]) | Plant response rating, Soybean (soybean (Glycine max); [17])
45: Velvetleaf plant response rating [12, 15]
100: Plant response rating, Galium [4, 20] | Galium plant response rating [4, 21] | Plant response rating, Lambsquarters [6, 16] | Plant response rating, Lambsquarters [6, 17] | Plant response rating, Morningglory [7, 17] | Oilseed Rape plant response rating [9, 21] | Plant response rating, Pigweed [10, 17] | Plant response rating, Pigweed [10, 18] | Plant response rating, Pigweed [10, 19] | Plant response rating, Pigweed [10, 20] | Pigweed plant response rating [10, 21] | Plant response rating, Velvetleaf [12, 17] | Plant response rating, Waterhemp [13, 19] | Plant response rating, Waterhemp [13, 20] | Waterhemp plant response rating [13, 21]
5: Blackgrass plant response rating [1, 22] | Plant response rating, Corn (corn (Zea mays); [16]) | Johnsongrass plant response rating [5, 15] | Plant response rating, Johnsongrass [5, 20] | Johnsongrass plant response rating [5, 22] | Plant response rating, Nutsedge, Yellow [8, 18] | Plant response rating, Nutsedge, Yellow [8, 19] | Soybean plant response rating (soybean (Glycine max); [15]) | Soybean plant response rating (soybean (Glycine max); [22])
60: Plant response rating, Blackgrass [1, 16] | Crabgrass, Large plant response rating [2, 21]
35: Plant response rating, Crabgrass, Large [2, 16] | Nutsedge, Yellow plant response rating [8, 22]
80: Blackgrass plant response rating [1, 21] | Plant response rating, Foxtail, Giant [3, 19] | Plant response rating, Lambsquarters [6, 18] | Plant response rating, Lambsquarters [6, 20] | Lambsquarters plant response rating [6, 21] | Plant response rating, Morningglory [7, 18] | Oilseed Rape plant response rating [9, 22] | Plant response rating, Ryegrass, Italian [11, 17] | Plant response rating, Ryegrass, Italian [11, 20] | Ryegrass, Italian plant response rating [11, 22] | Plant response rating, Velvetleaf [12, 18]
40: Plant response rating, Blackgrass [1, 17] | Plant response rating, Crabgrass, Large [2, 18] | Plant response rating, Crabgrass, Large [2, 19] | Plant response rating, Oilseed Rape [9, 16]
25: Crabgrass, Large plant response rating [2, 22] | Plant response rating, Nutsedge, Yellow [8, 20]
0: Corn plant response rating (corn (Zea mays); [15]) | Plant response rating, Corn (corn (Zea mays); [18]) | Corn plant response rating (corn (Zea mays); [21]) | Corn plant response rating (corn (Zea mays); [22]) | Plant response rating, Johnsongrass [5, 18] | Plant response rating, Johnsongrass [5, 19] | Plant response rating, Soybean (soybean (Glycine max); [18]) | Plant response rating, Soybean (soybean (Glycine max); [20]) | Wheat plant response rating [14, 15] | Plant response rating, Wheat [14, 16] | Plant response rating, Wheat [14, 17] | Plant response rating, Wheat [14, 18] | Plant response rating, Wheat [14, 19] | Plant response rating, Wheat [14, 20] | Wheat plant response rating [14, 21]

Cc1ccc(-c2c(O)c(Br)nn(C)c2=O)c2ccccc12 [Compound 52]
75: Plant response rating, Lambsquarters [6, 16]
35: Plant response rating, Foxtail, Giant [3, 17]
25: Velvetleaf plant response rating [12, 22]
30: Plant response rating, Blackgrass [1, 16] | Plant response rating, Blackgrass [1, 17] | Pigweed plant response rating [10, 15]
90: Galium plant response rating [4, 15] | Plant response rating, Nutsedge, Yellow [8, 16]
15: Plant response rating, Johnsongrass [5, 17]
10: Blackgrass plant response rating [1, 22] | Plant response rating, Crabgrass, Large [2, 17] | Plant response rating, Foxtail, Giant [3, 16] | Plant response rating, Johnsongrass [5, 16] | Johnsongrass plant response rating [5, 22] | Plant response rating, Pigweed [10, 16] | Ryegrass, Italian plant response rating [11, 15] | Waterhemp plant response rating [13, 15] | Plant response rating, Waterhemp [13, 16] | Waterhemp plant response rating [13, 22]
95: Plant response rating, Nutsedge, Yellow [8, 17]
60: Lambsquarters plant response rating [6, 22] | Nutsedge, Yellow plant response rating [8, 15] | Plant response rating, Ryegrass, Italian [11, 17]
40: Ryegrass, Italian plant response rating [11, 22]
100: Plant response rating, Galium [4, 16] | Plant response rating, Galium [4, 17] | Galium plant response rating [4, 22] | Plant response rating, Morningglory [7, 16] | Plant response rating, Morningglory [7, 17] | Morningglory plant response rating [7, 22] | Plant response rating, Velvetleaf [12, 17]
98: Plant response rating, Lambsquarters [6, 17] | Morningglory plant response rating [7, 15]
45: Plant response rating, Ryegrass, Italian [11, 16]
0: Blackgrass plant response rating [1, 15] | Corn plant response rating (corn (Zea mays); [15]) | Plant response rating, Corn (corn (Zea mays); [16]) | Plant response rating, Corn (corn (Zea mays); [17]) | Corn plant response rating (corn (Zea mays); [22]) | Crabgrass, Large plant response rating [2, 15] | Crabgrass, Large plant response rating [2, 22] | Foxtail, Giant plant response rating [3, 15] | Oilseed Rape plant response rating [9, 15] | Plant response rating, Oilseed Rape [9, 16] | Plant response rating, Oilseed Rape [9, 17] | Oilseed Rape plant response rating [9, 22] | Soybean plant response rating (soybean (Glycine max); [15]) | Plant response rating, Soybean (soybean (Glycine max); [16]) | Plant response rating, Soybean (soybean (Glycine max); [17]) | Soybean plant response rating (soybean (Glycine max); [22]) | Wheat plant response rating [14, 15] | Plant response rating, Wheat [14, 16] | Plant response rating, Wheat [14, 17] | Wheat plant response rating [14, 22]
5: Plant response rating, Crabgrass, Large [2, 16] | Foxtail, Giant plant response rating [3, 22] | Johnsongrass plant response rating [5, 15] | Pigweed plant response rating [10, 22] | Velvetleaf plant response rating [12, 15]
80: Nutsedge, Yellow plant response rating [8, 22]
55: Lambsquarters plant response rating [6, 15] | Plant response rating, Pigweed [10, 17] | Plant response rating, Velvetleaf [12, 16] | Plant response rating, Waterhemp [13, 17]
